Experiments:
[1] = system: ethylene receptors; assay: Banana ripening protection from ethylene; assay type: in vivo; settings: 24 hours of exposure in 3-liter jar, then 333 microliters per liter of ethylene for 12-15 hours; banana peels
Protocol: Compounds which block the ethylene receptors can prevent bananas from ripening. Treatment of bananas with 30 nl/l of Compound 1 protected banana peels from the effects of ethylene. The bananas were treated using the following general procedure:
An ether solution of a known amount of the active compound was placed on filter paper in a 3-liter jar. The amount of ether used was without effect when applied alone on a banana contained in a 3-liter jar. The jar was sealed and the banana was removed after 24 hours of exposure. The banana was then treated with 333 microliters per liter of ethylene in a 3-liter jar for 12-15 hours. It was then observed for ripening. The minimum concentration that protected the banana was determined.

[2] = system: Patio variety tomato seedlings; assay: Tomato Epinasty Test, volatile gas treatment; assay type: in vivo; settings: applied as a gas at 1000 ppm; ethylene 10 ppm v/v after four hours, scored sixteen hours later
Protocol: Objective: The test procedure is designed to determine the ability of an experimental compound to block the epinastic growth response induced by ethylene in tomato plants when the experimental compound is administered either as a volatile gas or as a component of a spray solution. Treatment chambers are of an appropriate size for the test plants and are airtight. Each is fitted with a reusable septum to be used for injection of ethylene. Test plants are Patio variety tomato seedlings planted two plants per three inch square plastic pot. Volatile gas treatment entails placing two pots of Patio var. tomatoes into a polystyrene 4.8L volume treatment chamber along with one-half (upper or lower section) of a 50×9 mm plastic Petri dish containing a Gelman filter pad. The appropriate amount of experimental compound, dissolved in 1.0 ml acetone, is pipetted onto the filter pad and the chamber immediately sealed. Four hours later ethylene gas equal to 10 ppm v/v final concentration is injected into the sealed chamber. Sixteen hours later the chambers are opened in an exhaust hood, allowed to air and the plants scored visually for the degree of protection against ethylene-induced epinasty conferred by the experimental compound when compared to ethylene treated and untreated controls on a scale of 0 to 10. A rating of 10 means complete protection. […]

Compound: OCC1=CC1 [Compound 1, 1-Hydroxymethylcyclopropene]
- minimum concentration that protected the banana [1]: 30 nl/l

Compound: OCCC1=CC1 [Compound 2, 1-(2-Hydroxyethyl)-cyclopropene]
- rating of protection against ethylene-induced epinasty (scale of 0 to 10; 10 means complete protection) [2]: 10
